Patent US8809362B2, “Anticancer agent sensitivity-determining marker” (priority 2009, dated 2014)

Columns and labels:
[1] = background statement; cited from earlier work
HT-29 cells = assay: MTS assay cell viability under SN-38 exposure, HT-29; type: cell-based, human; settings: HT-29, 50 nmol/L SN-38, exposure for 72 hours
Protocol: (§1) Two human colorectal cancer cell lines (HCT-116 and HT-29) employed were obtained from Kabushiki Kaisha Yakult Honsha.
(§2) Cell culturing was performed by means of a φ100 mm/Tissue Culture Dish (IWAKI) with a medium (Doulbecco's modified Eagle's Medium, 10% fetal bovine serum) at 37° C. under 5% CO2.
(§3) SN-38 powder was obtained from Kabushiki Kaisha Yakult Honsha. SN-38 was dissolved in DMSO, and, before use, the solution was diluted so that the DMSO concentration of each of the culture media employed in experiments was adjusted to 0.1% or less.
(§4) Cells of two colorectal cancer cell lines (HCT-116 and HT-29) were exposed to 50 nmol/L SN-38, and 24, 48, and 72 hours after drug exposure, cell viability was determined by means of an MTS assay (CellTiter96™AQueous One Solution Cell Proliferation Assay, Promega). Sensitivity evaluation of each cell line was performed in triplicate with three different passage numbers of cells, and the mean value and standard deviation were calculated.

HCT-116 cells = assay: MTS assay cell viability under SN-38 exposure, HCT-116; type: cell-based, human; settings: HCT-116, 50 nmol/L SN-38, exposure for 72 hours
Protocol: as §1, §2, §3, §4

WiDr = assay: MTS assay sensitivity (IC50) to SN-38, WiDr (Example 3); type: cell-based, human; settings: 72 hours exposure, highest IC50 of eight lines
Protocol: (§5) Cancer cells of each cell line were exposed to SN-38 (0 nmol/L to 5 μmol/L) for 72 hours. After exposure to SN-38, cell viability was determined by means of an MTS assay (CellTiter96™AQueous One Solution Cell Proliferation Assay, Promega). IC50 (concentration of SN-38 at which 50% of cells in an SN-38-non-treated well are inhibited) was calculated for each cell line and employed as the sensitivity of the cell line to SN-38. Sensitivity determination of each cell line was performed in triplicate and twice.
(§6) The experiment procedure of Example 2 was repeated twice. The data obtained in the experiments (three times in total) were further analyzed. Peaks detected through CE-TOFMS in the tested cell samples were compared with the data of 278 standard samples whose m/z values and migration times were already known, whereby 146 metabolites were identified in any of the tested cell samples. The 146 metabolites were investigated through single regression analysis in terms of the correlation between the intracellular content (in eight human colorectal cancer cell lines) and Log[IC50] of each cell line.
(§7) The sensitivity of each of eight human colorectal cancer cell lines (HCT-116, HT-29, HCT-15, Lovo, LS174T, SW480, SW620, and WiDr) was evaluated by employing IC50 calculated through MTS assay as an index.

LS174T = assay: MTS assay sensitivity (IC50) to SN-38, LS174T (Example 3); type: cell-based, human; settings: 72 hours exposure, lowest IC50 of eight lines
Protocol: as §5, §6, §7

| SMILES | cytotoxicity [1] | cell viability (HT-29 cells) | cell viability (HCT-116 cells) | IC50 (WiDr) | IC50 (LS174T) | anti-tumor activity relative to CPT-11 [1] |
| --- | --- | --- | --- | --- | --- | --- |
| CCc1c2c(nc3ccc(O[C@@H]4O[C@H](C(=O)O)[C@@H](O)[C@H](O)[C@H]4O)cc13)-c1cc3c(c(=O)n1C2)COC(=O)[C@]3(O)CC [SN-38G, SN-38 glucuronate conjugate] | no cytotoxicity |  |  |  |  |  |
| CCc1c2c(nc3ccc(O)cc13)-c1cc3c(c(=O)n1C2)COC(=O)[C@]3(O)CC [SN-38, 7-ethyl-10-hydroxycamptothecin] |  | about 85% | about 35% | 0.0633 ± 0.0109 µM | 0.00071 ± 0.00018 µM | about 100 times to some thousand times that of CPT-11 |
